Values of other authors in patent US20230330238A1, “CHIMERIC CONJUGATES FOR DEGRADATION OF VIRAL AND HOST PROTEINS AND METHODS OF USE” (Dana-Farber Cancer Institute, Inc., priority 2020, published 2023).

Details: FIG. 8A, identical to FIG. 1C in Bernal F., et al. 2007; cited from earlier work

LSQETF(R8)DLWKLL(S5)EN [SAH-p53-4]
α-helical stabilization (helicity by circular dichroism): more stable than SAH-p53-1-3
